According to patent US20200291018A1, “TAM KINASE INHIBITORS” (SYROS PHARMACEUTICALS, INC., priority 2017, published 2020):

Legend:
AXL = molecular target: T1, AXL (Homo sapiens, UniProt P30530); test: TR-FRET kinase activity assay, AXL; type: biochemical; conditions: ATP at Km, 60 minutes
T1 sequence (P30530 26-894): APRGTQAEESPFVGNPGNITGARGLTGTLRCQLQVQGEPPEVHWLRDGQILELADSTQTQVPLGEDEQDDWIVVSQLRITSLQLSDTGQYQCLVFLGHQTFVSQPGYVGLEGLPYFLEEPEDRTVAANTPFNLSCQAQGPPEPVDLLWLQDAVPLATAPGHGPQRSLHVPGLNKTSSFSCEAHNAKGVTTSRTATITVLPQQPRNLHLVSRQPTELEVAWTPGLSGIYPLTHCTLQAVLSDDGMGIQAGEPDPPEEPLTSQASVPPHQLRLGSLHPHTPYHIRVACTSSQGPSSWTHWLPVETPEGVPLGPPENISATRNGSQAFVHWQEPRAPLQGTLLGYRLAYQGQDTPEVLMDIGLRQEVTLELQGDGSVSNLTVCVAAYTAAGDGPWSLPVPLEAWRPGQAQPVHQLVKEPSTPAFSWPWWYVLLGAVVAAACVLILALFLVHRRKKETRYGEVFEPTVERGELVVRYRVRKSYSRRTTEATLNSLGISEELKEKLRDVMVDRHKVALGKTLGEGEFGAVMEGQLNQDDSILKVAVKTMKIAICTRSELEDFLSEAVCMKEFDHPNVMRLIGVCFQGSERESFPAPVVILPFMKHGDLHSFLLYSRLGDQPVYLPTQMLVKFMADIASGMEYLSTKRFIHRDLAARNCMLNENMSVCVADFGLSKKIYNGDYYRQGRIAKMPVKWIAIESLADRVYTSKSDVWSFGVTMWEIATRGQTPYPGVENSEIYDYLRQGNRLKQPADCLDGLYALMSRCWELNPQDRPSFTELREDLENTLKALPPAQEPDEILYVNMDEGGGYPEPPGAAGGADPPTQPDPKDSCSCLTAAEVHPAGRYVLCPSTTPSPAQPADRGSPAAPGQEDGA
How it was run: (§1)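 Buffer 50 mM HEPES pH 7.5/10 mM MgCl2/1 mM EGTA/0.01% Brij 35/1 mM DTT, RT. Km ATP per kinase, labeled peptide, 60 min; 12.5 mM EDTA stop; Eu-Ab 30 min dark; TR-FRET → IC50.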

TYRO3 = molecular target: T2, TYRO3 (Homo sapiens, UniProt Q06418); test: TR-FRET kinase activity assay, TYRO3; type: biochemical; conditions: ATP at Km, 60 minutes
T2 sequence (Q06418 41-890): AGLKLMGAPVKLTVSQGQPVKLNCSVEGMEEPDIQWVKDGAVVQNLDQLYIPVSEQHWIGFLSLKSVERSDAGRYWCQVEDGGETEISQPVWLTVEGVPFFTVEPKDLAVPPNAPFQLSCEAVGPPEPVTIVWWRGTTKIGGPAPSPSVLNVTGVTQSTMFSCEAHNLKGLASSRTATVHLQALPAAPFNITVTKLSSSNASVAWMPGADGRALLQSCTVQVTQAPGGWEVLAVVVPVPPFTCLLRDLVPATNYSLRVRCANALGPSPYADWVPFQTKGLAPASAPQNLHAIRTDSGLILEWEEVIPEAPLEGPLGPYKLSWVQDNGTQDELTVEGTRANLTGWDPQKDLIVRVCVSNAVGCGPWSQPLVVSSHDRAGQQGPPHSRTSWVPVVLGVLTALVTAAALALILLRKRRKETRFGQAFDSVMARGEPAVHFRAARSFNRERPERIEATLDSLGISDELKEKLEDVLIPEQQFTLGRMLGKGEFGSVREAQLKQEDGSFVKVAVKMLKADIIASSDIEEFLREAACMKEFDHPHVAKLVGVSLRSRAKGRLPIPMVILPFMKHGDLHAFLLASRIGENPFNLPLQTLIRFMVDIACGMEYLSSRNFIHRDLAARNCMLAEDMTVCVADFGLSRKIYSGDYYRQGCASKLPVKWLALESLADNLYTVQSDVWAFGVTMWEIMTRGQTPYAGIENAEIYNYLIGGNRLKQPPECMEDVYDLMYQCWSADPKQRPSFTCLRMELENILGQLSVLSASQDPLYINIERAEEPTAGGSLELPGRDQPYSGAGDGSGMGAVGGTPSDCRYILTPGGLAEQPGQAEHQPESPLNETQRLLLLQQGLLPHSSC
How it was run: as §1

Compound	IC50 (AXL)	IC50 (TYRO3)
CCCC(C)Nc1ncc2c(NC3CCN(C(=O)C(F)(F)F)CC3)ncc([C@H]3CC[C@H](O)CC3)c2n1 (some centres unmarked) [Compound 165]	0.1 to 1 µM	≤ 0.1 µM
CCCC(C)Nc1ncc2c(OC3CCNCC3)ncc([C@H]3CC[C@H](O)CC3)c2n1 (some centres unmarked) [Compound 166]	0.1 to 1 µM	≤ 0.1 µM
CC1CC(Nc2ncc3c(OC4CCNCC4)ncc([C@H]4CC[C@H](O)CC4)c3n2)C1 (some centres unmarked) [Compound 167]	≤ 0.1 µM	≤ 0.1 µM
CC1CC(Nc2ncc3c(OC4CCNCC4)ncc([C@H]4CC[C@@H](O)CC4)c3n2)C1 (some centres unmarked) [Compound 168]	0.1 to 1 µM	≤ 0.1 µM
CCCC(C)Nc1ncc2c(=O)n(CCN(C)C)cc([C@H]3CC[C@H](O)CC3)c2n1 (some centres unmarked) [Compound 169]	1 to 10 µM	≤ 0.1 µM
CCCC(C)Nc1ncc2c(OC3CCN(CCC(=O)N(C)C)CC3)ncc([C@H]3CC[C@H](O)CC3)c2n1 (some centres unmarked) [Compound 170]	0.1 to 1 µM	≤ 0.1 µM
CCC[C@H](C)Nc1ncc2c(OC3CCNCC3)ncc([C@H]3CC[C@H](O)CC3)c2n1 [Compound 171]	≤ 0.1 µM	≤ 0.1 µM
CCCC(C)Nc1ncc2c(OC3CCN(CC(=O)N(C)C)CC3)ncc([C@H]3CC[C@H](O)CC3)c2n1 (some centres unmarked) [Compound 172]	0.1 to 1 µM	≤ 0.1 µM
CCCC(C)Nc1ncc2c(OC3CCN(CCOC)CC3)ncc([C@H]3CC[C@H](O)CC3)c2n1 (some centres unmarked) [Compound 173]	0.1 to 1 µM	≤ 0.1 µM
CCCC(C)Nc1ncc2c(O[C@@H]3C[C@H]4CC[C@@H](C3)O4)ncc([C@H]3CC[C@H](O)CC3)c2n1 (some centres unmarked) [Compound 174]	0.1 to 1 µM	0.1 to 1 µM
CCCC(C)Nc1ncc2c(O[C@H]3C[C@H]4CC[C@@H](C3)O4)ncc([C@H]3CC[C@H](O)CC3)c2n1 (some centres unmarked) [Compound 175]	0.1 to 1 µM	0.1 to 1 µM
CCCC(C)Nc1ncc2c(O[C@H]3C[C@@H](O)C3)ncc([C@H]3CC[C@H](O)CC3)c2n1 (some centres unmarked) [Compound 176]	0.1 to 1 µM	≤ 0.1 µM
CCCC(C)Nc1ncc2c(=O)n(CCN3CCOCC3)cc([C@H]3CC[C@H](O)CC3)c2n1 (some centres unmarked) [Compound 177]	1 to 10 µM	≤ 0.1 µM
CC(C)C(C)Nc1ncc2c(OC3CCNCC3)ncc([C@H]3CC[C@H](O)CC3)c2n1 (some centres unmarked) [Compound 178]	0.1 to 1 µM	≤ 0.1 µM
CCCC(C)Nc1ncc2c(N(C)C3CCNCC3)ncc([C@H]3CC[C@H](O)CC3)c2n1 (some centres unmarked) [Compound 179]	0.1 to 1 µM	≤ 0.1 µM
COCCN1[C@@H]2CC[C@H]1C[C@H](Oc1ncc([C@H]3CC[C@H](O)CC3)c3nc(N[C@@H](C)CC(F)(F)F)ncc13)C2 [Compound 432]	≤ 0.1 µM	≤ 0.1 µM
CC(=O)N1[C@@H]2CC[C@H]1C[C@H](Oc1ncc([C@H]3CC[C@H](O)CC3)c3nc(N[C@@H](C)CC(F)(F)F)ncc13)C2 [Compound 436]	≤ 0.1 µM	≤ 0.1 µM
C[C@@H](CC(F)(F)F)Nc1ncc2c(O[C@@H]3C[C@H]4CC[C@@H](C3)N4C3COC3)ncc([C@H]3CC[C@H](O)CC3)c2n1 [Compound 437]	≤ 0.1 µM	≤ 0.1 µM

Next, values leading:

IC50 (AXL)	IC50 (TYRO3)	Compound
1 to 10 µM	≤ 0.1 µM	CCCC(C)Nc1ncc2c(N3CCC[C@H](N(C)C)C3)ncc([C@H]3CC[C@H](O)CC3)c2n1 (some centres unmarked) [Compound 180]
1 to 10 µM	> 10 µM	CCCC(C)Nc1ncc2c(N3CC(N(C)C)C3)ncc([C@H]3CC[C@H](O)CC3)c2n1 (some centres unmarked) [Compound 181]
1 to 10 µM	0.1 to 1 µM	CCCC(C)Nc1ncc2c(OCCN3CCOCC3)ncc([C@H]3CC[C@H](O)CC3)c2n1 (some centres unmarked) [Compound 182]
0.1 to 1 µM	> 10 µM	O[C@H]1CC[C@H](c2cnc(OC3CCNCC3)c3cnc(NC4CCCCC4)nc32)CC1 [Compound 183]
1 to 10 µM	> 10 µM	CCCC(C)Nc1ncc2c(OC3CCOCC3)ncc([C@H]3CC[C@@H](N(C)C)CC3)c2n1 (some centres unmarked) [Compound 184]
0.1 to 1 µM	> 10 µM	CCCC(C)Nc1ncc2c(OC3CCOCC3)ncc([C@H]3CC[C@H](N(C)C)CC3)c2n1 (some centres unmarked) [Compound 185]
0.1 to 1 µM	> 10 µM	CCCC(C)Nc1ncc2c(=O)n(C3CCN(C(C)C)CC3)cc([C@H]3CC[C@H](O)CC3)c2n1 (some centres unmarked) [Compound 186]
0.1 to 1 µM	≤ 0.1 µM	CCCC(C)Nc1ncc2c(O[C@H]3C[C@H](O)C3)ncc([C@H]3CC[C@H](O)CC3)c2n1 (some centres unmarked) [Compound 187]
1 to 10 µM	> 10 µM	CCCC(C)Nc1ncc2c(N3CCC[C@@H](N(C)C)C3)ncc([C@H]3CC[C@H](O)CC3)c2n1 (some centres unmarked) [Compound 188]
1 to 10 µM	> 10 µM	C[C@H](Nc1ncc2c(OC3CCNCC3)ncc([C@H]3CC[C@H](O)CC3)c2n1)c1ccccc1 [Compound 189]
0.1 to 1 µM	0.1 to 1 µM	CCC[C@H](C)Nc1ncc2c(OC3CCN(C)CC3)ncc([C@H]3CC[C@H](O)CC3)c2n1 [Compound 190]
1 to 10 µM	> 10 µM	CCCC(C)Nc1ncc2c(OCCN(C)C)ncc([C@H]3CC[C@H](O)CC3)c2n1 (some centres unmarked) [Compound 191]
1 to 10 µM	> 10 µM	CCCC(C)Nc1ncc2c(=O)n(C3CCN(C(=O)CN(C)C)CC3)cc([C@H]3CC[C@H](O)CC3)c2n1 (some centres unmarked) [Compound 192]
0.1 to 1 µM	> 10 µM	CCCC(C)Nc1ncc2c(=O)n(CC3CCN(C)CC3)cc([C@H]3CC[C@H](O)CC3)c2n1 (some centres unmarked) [Compound 193]
0.1 to 1 µM	≤ 0.1 µM	C[C@@H](CC(F)(F)F)Nc1ncc2c(O[C@H]3C[C@](C)(O)C3)ncc([C@H]3CC[C@H](O)CC3)c2n1 [Compound 430]
1 to 10 µM	≤ 0.1 µM	COC[C@H](C)Nc1ncc2c(O[C@H]3C[C@@H](O)C3(C)C)ncc([C@H]3CC[C@H](O)CC3)c2n1 [Compound 431]
≤ 0.1 µM	≤ 0.1 µM	CC(=O)N[C@H]1C[C@@H](Oc2ncc([C@H]3CC[C@H](O)CC3)c3nc(N[C@@H](C)CC(F)(F)F)ncc23)C1 [Compound 433]
0.1 to 1 µM	≤ 0.1 µM	CO[C@H]1C[C@@H](Oc2ncc([C@H]3CC[C@H](O)CC3)c3nc(N[C@@H](C)CC(F)(F)F)ncc23)C1 [Compound 434]
≤ 0.1 µM	≤ 0.1 µM	COC(=O)N[C@H]1C[C@@H](Oc2ncc([C@H]3CC[C@H](O)CC3)c3nc(N[C@@H](C)CC(F)(F)F)ncc23)C1 [Compound 435]
